# US11590472B2, “Methods and compositions for on-demand release of ClO2 gas from UV-activated chlorite ion” (Wisconsin Alumni Research Foundation, priority 2015, dated 2023)
# System: L. monocytogenes
# Assay: Microbial kill on L. monocytogenes inoculated lettuce in pouches
# Assay type: cell-based
# Conditions: 5 days post inoculation and packaging
# Source text: To verify its efficacy against pathogenic bacteria, pouch samples were sent to Institute of Food Safety and Health (IFSH) for a microbial study where they were filled with 30 grams of lettuce that was inoculated with the L. monocytogenes with an initial count of 7.6E+06 CFU/g. The pouches were the same structure and size as Produce Packaging Example 1. The pouches were exposed to 3 s or 5 s of 254 nm UV radiation and analyzed for the microbial kill at 1 and 5 days. […] The pouches containing the ClO2 additive were either pre humidified to 80% RH or left unconditioned. The moisture required for the chlorine dioxide production in the dry samples came from the lettuce. It was observed that chlorine dioxide was able to attain 4-5 log kill in 5 days post inoculation and packaging.
smiles,measurement,value
[O][Cl+][O-] [chlorine dioxide],log kill of L. monocytogenes,4-5 log
